Laboratory results reported in paper PMC10321576, “Cyclic peptides target the aromatic cage of a PHD-finger reader domain to modulate epigenetic protein function” (Chemical Science, 2023).
Peptide text beside a SMILES is read from it.

Target: T1, KDM7B PHD-finger (Homo sapiens, UniProt Q9UPP1)
T1 construct: KDM7B 1-66; His-tag (C); made in house
T1 sequence (Q9UPP1 1-66 isoform Q9UPP1-2): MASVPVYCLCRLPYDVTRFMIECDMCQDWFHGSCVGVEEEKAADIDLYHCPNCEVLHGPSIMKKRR
Assay: Protein NMR 1H-15N HSQC chemical shift perturbation
Assay type: binding
Description: To better elucidate OC9 interactions at a single residue level, we conducted protein NMR studies using isotopically labelled PHD-finger.[48] Comparison of ^1H–^15N HSQC spectra for isotopically labelled apo and OC9-bound protein (Fig. 4a), independently assigned using ^13C,^15N 3D experiments (Fig. S21, NMR ESI ^†), identified 24 out of 66 protein residues with significant (standard deviation, s > 1) chemical shift perturbation (CSP, Δδ) of their backbone amides (Fig. 4b).
(a) ^1H–^15N HSQC of KDM7B PHD-finger in the apo (black) or bound forms with OC9 (purple, 1 : 1) or H3_1–21K4me3 (green, 3 : 1). (b) ^1H and ^15N chemical shift changes for apo vs. + OC9 were combined and weighted to give chemical shift perturbation (CSP) (Δδ) values. Standard deviation (σ) of Δδ are indicated (>1 pink, >2 purple). (c) TALOS+ predicts similar secondary structure elements in apo and OC9-bound solution protein complexes (light grey) to those found in PDB ID 3KV4 (dark grey). […] (e) Shielded ^1H-NMR signals centred around −0.5 ppm belonging to the OC9 V10 γ-methyl groups are observed in some OC9–PHD complexes, but not in apo protein, or complexes with OC9 V10A and OC9 V10DV. The V10^OC9 γ-methyl signals have NOE interactions (black semi-circles) with the W29^PHD indole, which itself is shielded upon binding of OC9 (indicated by ΔδH values).

In the case of `CC(C)[C@@H]1NC(=O)[C@H](CO)NC(=O)[C@@H]2CCCN2C(=O)[C@H](Cc2ccc(O)cc2)NC(=O)[C@@H]2CCCN2C(=O)[C@H](Cc2c[nH]cn2)NC(=O)[C@H]([C@@H](C)O)NC(=O)[C@H](C)NC(=O)[C@H](Cc2ccc(O)cc2)NC(=O)[C@H](Cc2ccc(O)cc2)NC(=O)CSC[C@@H](C(N)=O)NC(=O)[C@H]([C@@H](C)O)NC(=O)[C@H](CCCNC(=N)N)NC(=O)[C@H](Cc2ccccc2)NC1=O` [L3A] (HELM PEPTIDE1{[O=C(C[*:3])[*:2]].Y.Y.A.T.H.P.Y.P.S.V.F.R.T.C.[am]}$PEPTIDE1,PEPTIDE1,1:R3-15:R3$$$V2.0; C-terminus assumed), the “CSP His49, OC9 vs OC9 L3A” value (residue His49 amide, PHD+OC9 vs PHD+OC9 L3A) is reported as 0.0165, the “CSP His57” value (residue His57 amide 1H-15N, Free PHD vs PHD+peptide) is reported as 0.0486 and the “CSP His57, OC9 vs OC9 L3A” value (residue His57 amide, PHD+OC9 vs PHD+OC9 L3A) is reported as 0.0065. The “CSP Ile21” value (residue Ile21 amide 1H-15N, Free PHD vs PHD+peptide) was 0.1438, the “CSP Ile21, OC9 vs OC9 L3A” value (residue Ile21 amide, PHD+OC9 vs PHD+OC9 L3A) was 0.0277 and the “CSP Ile45” value (residue Ile45 amide 1H-15N, Free PHD vs PHD+peptide) was 0.1010. For the same molecule, the “CSP Ile45, OC9 vs OC9 L3A” value (residue Ile45 amide, PHD+OC9 vs PHD+OC9 L3A) was 0.0202, the “CSP Ile61” value (residue Ile61 amide 1H-15N, Free PHD vs PHD+peptide) was 0.1437 and the “CSP Ile61, OC9 vs OC9 L3A” value (residue Ile61 amide, PHD+OC9 vs PHD+OC9 L3A) was 0.0065. The “CSP Leu9” value (residue Leu9 amide 1H-15N, Free PHD vs PHD+peptide) was 0.1892, the “CSP Leu9, OC9 vs OC9 L3A” value (residue Leu9 amide, PHD+OC9 vs PHD+OC9 L3A) was 0.0129 and the “CSP Leu12” value (residue Leu12 amide 1H-15N, Free PHD vs PHD+peptide) was 0.1747. The “CSP Leu12, OC9 vs OC9 L3A” value (residue Leu12 amide, PHD+OC9 vs PHD+OC9 L3A) was 0.0115, the “CSP Leu47” value (residue Leu47 amide 1H-15N, Free PHD vs PHD+peptide) was 0.1015 and the “CSP Leu47, OC9 vs OC9 L3A” value (residue Leu47 amide, PHD+OC9 vs PHD+OC9 L3A) was 0.0102. The “CSP Leu56” value (residue Leu56 amide 1H-15N, Free PHD vs PHD+peptide) was 0.0523, the “CSP Leu56, OC9 vs OC9 L3A” value (residue Leu56 amide, PHD+OC9 vs PHD+OC9 L3A) was 0.0102 and the “CSP Lys41” value (residue Lys41 amide 1H-15N, Free PHD vs PHD+peptide) was 0.1015. For the same molecule, the “CSP Lys41, OC9 vs OC9 L3A” value (residue Lys41 amide, PHD+OC9 vs PHD+OC9 L3A) was 0.0275, the “CSP Lys63” value (residue Lys63 amide 1H-15N, Free PHD vs PHD+peptide) was 0.1309 and the “CSP Lys63, OC9 vs OC9 L3A” value (residue Lys63 amide, PHD+OC9 vs PHD+OC9 L3A) was 0.0000. The “CSP Lys64” value (residue Lys64 amide 1H-15N, Free PHD vs PHD+peptide) was 0.0250, the “CSP Lys64, OC9 vs OC9 L3A” value (residue Lys64 amide, PHD+OC9 vs PHD+OC9 L3A) was 0.0034 and the “CSP Met20” value (residue Met20 amide 1H-15N, Free PHD vs PHD+peptide) was 0.3554. The “CSP Met20, OC9 vs OC9 L3A” value (residue Met20 amide, PHD+OC9 vs PHD+OC9 L3A) was 0.0065, the “CSP Met25” value (residue Met25 amide 1H-15N, Free PHD vs PHD+peptide) was 0.7126 and the “CSP Met25, OC9 vs OC9 L3A” value (residue Met25 amide, PHD+OC9 vs PHD+OC9 L3A) was 0.0388. The “CSP Met62” value (residue Met62 amide 1H-15N, Free PHD vs PHD+peptide) was 0.0950, the “CSP Met62, OC9 vs OC9 L3A” value (residue Met62 amide, PHD+OC9 vs PHD+OC9 L3A) was 0.0055 and the “CSP Phe19” value (residue Phe19 amide 1H-15N, Free PHD vs PHD+peptide) was 0.3115. The “CSP Phe19, OC9 vs OC9 L3A” value (residue Phe19 amide, PHD+OC9 vs PHD+OC9 L3A) was 0.0174, the “CSP Phe30” value (residue Phe30 amide 1H-15N, Free PHD vs PHD+peptide) was 0.2578 and the “CSP Phe30, OC9 vs OC9 L3A” value (residue Phe30 amide, PHD+OC9 vs PHD+OC9 L3A) was 0.0115. The “CSP Ser3” value (residue Ser3 amide 1H-15N, Free PHD vs PHD+peptide) was 0.0045, the “CSP Ser3, OC9 vs OC9 L3A” value (residue Ser3 amide, PHD+OC9 vs PHD+OC9 L3A) was 0.0000 and the “CSP Ser33” value (residue Ser33 amide 1H-15N, Free PHD vs PHD+peptide) was 0.1165. For the same molecule, the “CSP Ser33, OC9 vs OC9 L3A” value (residue Ser33 amide, PHD+OC9 vs PHD+OC9 L3A) was 0.0065, the “CSP Ser60” value (residue Ser60 amide 1H-15N, Free PHD vs PHD+peptide) was 0.0496 and the “CSP Ser60, OC9 vs OC9 L3A” value (residue Ser60 amide, PHD+OC9 vs PHD+OC9 L3A) was 0.0034. The “CSP Thr17” value (residue Thr17 amide 1H-15N, Free PHD vs PHD+peptide) was 0.2647, the “CSP Thr17, OC9 vs OC9 L3A” value (residue Thr17 amide, PHD+OC9 vs PHD+OC9 L3A) was 0.0068 and the “CSP Trp29” value (residue Trp29 amide 1H-15N, Free PHD vs PHD+peptide) was 0.3312. The “CSP Trp29, OC9 vs OC9 L3A” value (residue Trp29 amide, PHD+OC9 vs PHD+OC9 L3A) was 0.0599, the “CSP Tyr7” value (residue Tyr7 amide 1H-15N, Free PHD vs PHD+peptide) was 0.2566 and the “CSP Tyr7, OC9 vs OC9 L3A” value (residue Tyr7 amide, PHD+OC9 vs PHD+OC9 L3A) was 0.0115. The “CSP Tyr14” value (residue Tyr14 amide 1H-15N, Free PHD vs PHD+peptide) was 0.3127, the “CSP Tyr14, OC9 vs OC9 L3A” value (residue Tyr14 amide, PHD+OC9 vs PHD+OC9 L3A) was 0.0065 and the “CSP Tyr48” value (residue Tyr48 amide 1H-15N, Free PHD vs PHD+peptide) was 0.8682. For the same molecule, the “CSP Tyr48, OC9 vs OC9 L3A” value (residue Tyr48 amide, PHD+OC9 vs PHD+OC9 L3A) was 0.0765, the “CSP Val4” value (residue Val4 amide 1H-15N, Free PHD vs PHD+peptide) was 0.0240 and the “CSP Val4, OC9 vs OC9 L3A” value (residue Val4 amide, PHD+OC9 vs PHD+OC9 L3A) was 0.0068. For the same molecule, the “CSP Val6” value (residue Val6 amide 1H-15N, Free PHD vs PHD+peptide) was 0.1640, the “CSP Val6, OC9 vs OC9 L3A” value (residue Val6 amide, PHD+OC9 vs PHD+OC9 L3A) was 0.0055 and the “CSP Val16” value (residue Val16 amide 1H-15N, Free PHD vs PHD+peptide) was 0.3687. For the same molecule, the “CSP Val16, OC9 vs OC9 L3A” value (residue Val16 amide, PHD+OC9 vs PHD+OC9 L3A) was 0.0230, the “CSP Val35” value (residue Val35 amide 1H-15N, Free PHD vs PHD+peptide) was 0.0569 and the “CSP Val35, OC9 vs OC9 L3A” value (residue Val35 amide, PHD+OC9 vs PHD+OC9 L3A) was 0.0102. For the same molecule, the “CSP Val37” value (residue Val37 amide 1H-15N, Free PHD vs PHD+peptide) was 0.0783, the “CSP Val37, OC9 vs OC9 L3A” value (residue Val37 amide, PHD+OC9 vs PHD+OC9 L3A) was 0.0065 and the “CSP Val55” value (residue Val55 amide 1H-15N, Free PHD vs PHD+peptide) was 0.0206. The “CSP Val55, OC9 vs OC9 L3A” value (residue Val55 amide, PHD+OC9 vs PHD+OC9 L3A) was 0.0055.
